Assay [1] concerns A. baumannii 5075. Nature of the assay: microbe, parasite or virus in culture.
The subject of assay [2] is K. pneumoniae 4640. In words: microbe, parasite or virus in culture.

Structures are written as SMILES. In brackets after ≈: the same amount, converted by molar mass. Where two headings read alike, the source gives them in different places.

For the molecule `C[C@H]1COc2c(N3CCN(C)CC3)c(F)cc3c(=O)c(C(=O)O)cn1c23` [Levofloxacin, reference compound], the MIC turned out to be 4 µg/mL (≈ 11.1 µM) in assay [1] (Acinetobacter baumannii, 5075, 20 h, A. baumannii 5075, CAMHB, 1 × 10⁵ CFU/mL, 0.25 to 128 μg/mL, 37 °C 20 h, duplicate, read visually (CLSI)); 8 µg/mL (≈ 22.1 µM) in assay [1] (Acinetobacter baumannii, 5075, read-out: Bacterial MIC, A. baumannii 5075, Historical run 15NOV23); 4 µg/mL (≈ 11.1 µM) in assay [1] (Acinetobacter baumannii, 5075, read-out: Bacterial MIC, A. baumannii 5075, Historical run 19APRIL23); 4 µg/mL (≈ 11.1 µM) in assay [1] (Acinetobacter baumannii, 5075, read-out: Bacterial MIC, A. baumannii 5075, Historical run 22NOV23); 4 µg/mL (≈ 11.1 µM) in assay [1] (Acinetobacter baumannii, 5075, read-out: Bacterial MIC, A. baumannii 5075, Week 1 (12/6/2023)); 4 µg/mL (≈ 11.1 µM) in assay [1] (Acinetobacter baumannii, 5075, read-out: Bacterial MIC, A. baumannii 5075, Week 2 (12/14/2023)). The MIC in assay [2] (Klebsiella pneumoniae, 4640, 20 h, K. pneumoniae 4640, CAMHB, 1 × 10⁵ CFU/mL, 0.25 to 128 μg/mL, 37 °C 20 h, duplicate, read visually (CLSI)) is 32 µg/mL (≈ 88.6 µM); in assay [2] (Klebsiella pneumoniae, 4640, read-out: Bacterial MIC, K. pneumoniae 4640, Historical run 15NOV23), 32 to 64 µg/mL (≈ 88.6 to 177 µM); in assay [2] (Klebsiella pneumoniae, 4640, read-out: Bacterial MIC, K. pneumoniae 4640, Historical run 19APRIL23), 64 µg/mL (≈ 177 µM); in assay [2] (Klebsiella pneumoniae, 4640, read-out: Bacterial MIC, K. pneumoniae 4640, Historical run 22NOV23) it was 32 µg/mL (≈ 88.6 µM); in assay [2] (Klebsiella pneumoniae, 4640, read-out: Bacterial MIC, K. pneumoniae 4640, Week 1 (12/6/2023)), 32 µg/mL (≈ 88.6 µM); in assay [2] (Klebsiella pneumoniae, 4640, read-out: Bacterial MIC, K. pneumoniae 4640, Week 2 (12/14/2023)), 32 µg/mL (≈ 88.6 µM).
